What is called melting point is the temperature, or range, at which the solid turns liquid. What is called inhibition is the drop in the measured response relative to a control, in per cent.

For series [1], the system named is 6 Hz (32 mA) seizures, mice. Nature of the series: 6 Hz (32 mA) psychomotor seizure test.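 Further: compounds given as one i.p. dose suspended in 1% aqueous Tween 80, with the 6 Hz (32 mA) model considered to reflect focal epilepsy in humans.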 It is filed as in vivo. The note with it: Mus musculus, ip, 100 mg/kg i.p., 0.5 h.
Excerpt: (§1) Both the aforementioned parameters (ED50 and TD50) enabled the calculation of protective indexes (PIs), which reflect the comparative the benefit–risk ratio of these experimental therapeutic agents.
(§2) Four mice per group were randomly assigned to each experimental group in the initial screening experiments (each mouse was used just once). Four groups, each with eight animals, received injections of different doses of the investigated substances in order to determine the ED50 or TD50 values. The PIs for the compounds investigated and reference ASMs were calculated by dividing the TD50 value, as determined in the chimney test by the respective ED50 value, as determined in the MES, scPTZ, or 6 Hz (32 mA or 44 mA) tests (PI = TD50/ED50). The PIs are a measure of the potential therapeutic window of the tested agent.
(§3) All substances were suspended in Tween 80 (1% aqueous solution) and administered i.p. as a single injection at a volume of 10 mL/kg. On each day of experimentation, fresh solutions were prepared.
Series [2] deals with maximal electroshock (MES) seizures, mice. The experiment in a line: maximal electroshock (MES) seizure test. It is filed as in vivo. Particulars: Mus musculus, ip; 100 mg/kg i.p., 0.5 h, mice; read-out: MES: number of mice protected/number of mice tested (converted). In general terms: The maximal electroshock test induces tonic seizures with an electrical stimulus.
Excerpt: as §1, §2, §3
A further series addresses T1, TRPV1 (VR1) (h) (Homo sapiens, UniProt Q8NER1).
T1 construct: host or cells: CHO cells
The experiment in a line: TRPV1 (VR1) (h) (antagonist effect). The format is cell-based. Particulars: 100 µM, human recombinant CHO cells; read-out: % Inhibition of control agonist response. As for the experimental part: Further in vitro functional studies confirmed TRPV1 antagonist activity for (R)-31–(R)-33.
Using previously described testing methodologies, binding/functional tests were conducted on a commercial basis at Eurofins Laboratories (Poitiers, France) and Eurofins Panlabs Discovery Services Taiwan, Ltd. (New Taipei City, Taiwan); see Table S9 for more information.
Table S9. Radioligand binding and functional assays. […]
TRPV1 (VR1) (h) (antagonist effect) […]
Assays were performed commercially in Eurofins Laboratories (Poitiers, France) or Eurofins Panlabs Discovery Services
Taiwan, Ltd. (New Taipei City, Taiwan).

The mark [3] stands for this setting: four mice, read-out: protection in the 6 Hz (32 mA) test.
[4] abbreviates: mice, read-out: 6 Hz (32 mA): number of mice protected/number of mice tested (converted).

Molecules are shown by their SMILES. Where two headings read alike, the source gives them in different places.

T1 sequence (Q8NER1 whole entry): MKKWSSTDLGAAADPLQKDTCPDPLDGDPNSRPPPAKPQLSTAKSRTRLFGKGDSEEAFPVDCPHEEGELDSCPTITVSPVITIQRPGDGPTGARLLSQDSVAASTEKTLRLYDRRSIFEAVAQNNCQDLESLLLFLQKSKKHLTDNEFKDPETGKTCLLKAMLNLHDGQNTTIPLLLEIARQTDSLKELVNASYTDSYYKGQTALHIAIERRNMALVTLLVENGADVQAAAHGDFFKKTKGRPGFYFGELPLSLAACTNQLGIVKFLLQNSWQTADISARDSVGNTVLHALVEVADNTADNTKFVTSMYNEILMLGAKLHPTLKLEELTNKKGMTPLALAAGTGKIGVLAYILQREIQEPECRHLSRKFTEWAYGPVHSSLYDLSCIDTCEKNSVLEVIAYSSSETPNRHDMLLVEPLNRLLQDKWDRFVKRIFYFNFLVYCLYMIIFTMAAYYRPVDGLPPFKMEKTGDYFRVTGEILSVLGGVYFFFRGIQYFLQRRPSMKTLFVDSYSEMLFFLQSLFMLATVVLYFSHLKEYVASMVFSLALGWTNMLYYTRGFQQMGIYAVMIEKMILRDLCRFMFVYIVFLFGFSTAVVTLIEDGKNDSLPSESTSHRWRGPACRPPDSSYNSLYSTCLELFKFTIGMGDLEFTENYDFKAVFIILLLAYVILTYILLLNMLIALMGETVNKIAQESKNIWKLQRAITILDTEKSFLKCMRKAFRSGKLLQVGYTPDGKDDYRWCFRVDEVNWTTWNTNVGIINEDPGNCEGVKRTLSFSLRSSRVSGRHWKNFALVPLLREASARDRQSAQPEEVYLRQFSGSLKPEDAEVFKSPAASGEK

On to `CC(=O)N[C@H](C(=O)N1CCN(c2cccc(C(F)(F)F)c2)CC1)c1ccccc1` [(S)-31, (S)-N-(2-Oxo-1-phenyl-2-(4-(3-(trifluoromethyl)phenyl)piperazin-1-yl)ethyl)acetamide], for which the melting point is 109.8 to 110.6 °C. In addition, in series [1] (setting [3]), the responders at 100 mg/kg was 50%. Besides, the responders at 100 mg/kg in series [1] (setting [4]) is 50%. In addition, the responders at 100 mg/kg in series [2] is 25%.
With `CC(=O)N[C@H](C(=O)N1CCN(c2cccc(OC(F)(F)F)c2)CC1)c1ccccc1` [(S)-32, (S)-N-(2-Oxo-1-phenyl-2-(4-(3-(trifluoromethoxy)phenyl)piperazin-1-yl)ethyl)acetamide], the responders at 100 mg/kg in series [1] (setting [3]) was 75%; in series [1] (setting [4]), 75%; in series [2] it was 25%.
For the compound `CC(=O)N[C@H](C(=O)N1CCN(c2cccc(SC(F)(F)F)c2)CC1)c1ccccc1` [(S)-33, (S)-N-(2-Oxo-1-phenyl-2-(4-(3-((trifluoromethyl)thio)phenyl)piperazin-1-yl)ethyl)acetamide], the values for the responders at 100 mg/kg in series [1] (setting [3]), in series [1] (setting [4]) and in series [2] were 75%, 75% and 25%, respectively.
`O=C(NC(C(=O)N1CCN(c2cccc(C(F)(F)F)c2)CC1)c1ccccc1)c1ccccc1` (centres unmarked) [Compound 3, N-(2-Oxo-1-phenyl-2-(4-(3-(trifluoromethyl)phenyl)piperazin-1-yl)ethyl)benzamide] returned a melting point of 140.9 to 141.2 °C. The responders at 100 mg/kg in series [1] (setting [3]) was found to be 50%. Besides, in series [1] (setting [4]), the responders at 100 mg/kg is 50%. In addition, the responders at 100 mg/kg in series [2] is 0%. Also, the inhibition at 100 µM on TRPV1 (VR1) (h) turned out to be 11.4%.
With `O=C(NC(C(=O)N1CCN(c2cccc(C(F)(F)F)c2)CC1)c1ccccc1)c1ccccc1Cl` (centres unmarked) [Compound 4, 2-Chloro-N-(2-oxo-1-phenyl-2-(4-(3-(trifluoromethyl)phenyl)piperazin-1-yl)ethyl) Benzamide], the melting point lay in the range of 134.8 to 135.9 °C. The responders at 100 mg/kg in series [1] (setting [4]) is 0%. For the same compound, the responders at 100 mg/kg in series [2] is 0%. Moreover, the inhibition at 100 µM on TRPV1 (VR1) (h) came out at 14.4%.
With `O=C(NC(C(=O)N1CCN(c2cccc(C(F)(F)F)c2)CC1)c1ccccc1)c1cccc(Cl)c1` (centres unmarked) [Compound 5, 3-Chloro-N-(2-oxo-1-phenyl-2-(4-(3-(trifluoromethyl)phenyl)piperazin-1-yl)ethyl) Benzamide], the melting point lay in the range of 151.7 to 152.4 °C. Moreover, the responders at 100 mg/kg in series [1] (setting [3]) came out at 50%. In addition, in series [1] (setting [4]), the responders at 100 mg/kg is 50%. In addition, in series [2], the responders at 100 mg/kg is 0%. The inhibition at 100 µM at TRPV1 (VR1) (h) amounted to 3.8%.
`O=C(NC(C(=O)N1CCN(c2cccc(C(F)(F)F)c2)CC1)c1ccccc1)c1ccc(Cl)cc1` (centres unmarked) [Compound 6, 4-Chloro-N-(2-oxo-1-phenyl-2-(4-(3-(trifluoromethyl)phenyl)piperazin-1-yl)ethyl) Benzamide]: the melting point fell in the range of 165.2 to 166.7 °C. In addition, the responders at 100 mg/kg in series [1] (setting [3]) was 25%. Also, the responders at 100 mg/kg in series [1] (setting [4]) is 25%. For the same compound, in series [2], the responders at 100 mg/kg is 0%. Moreover, the inhibition at 100 µM at TRPV1 (VR1) (h) amounted to 6.8%.
As to `O=C(NC(C(=O)N1CCN(c2cccc(C(F)(F)F)c2)CC1)c1ccccc1)c1ccccc1C(F)(F)F` (centres unmarked) [Compound 7, N-(2-Oxo-1-phenyl-2-(4-(3-(trifluoromethyl)phenyl)piperazin-1-yl)ethyl)-2 (trifluoromethyl)benzamide], the melting point was 165.2 to 166.7 °C. The responders at 100 mg/kg in series [1] (setting [4]) was 0%. The responders at 100 mg/kg in series [2] is 0%. Besides, the inhibition at 100 µM on TRPV1 (VR1) (h) was -2.6%.
`O=C(NC(C(=O)N1CCN(c2cccc(C(F)(F)F)c2)CC1)c1ccccc1)c1cccc(C(F)(F)F)c1` (centres unmarked) [Compound 8, N-(2-Oxo-1-phenyl-2-(4-(3-(trifluoromethyl)phenyl)piperazin-1-yl)ethyl)-3-(trifluoromethyl)benzamide] showed a melting point of 143.2 to 144.1 °C. In series [1] (setting [4]), the responders at 100 mg/kg was 0%. Further, in series [2], the responders at 100 mg/kg is 0%. Moreover, the inhibition at 100 µM at TRPV1 (VR1) (h) was -6.1%.
Turning to `O=C(NC(C(=O)N1CCN(c2cccc(C(F)(F)F)c2)CC1)c1ccccc1)c1ccc(C(F)(F)F)cc1` (centres unmarked) [Compound 9, N-(2-Oxo-1-phenyl-2-(4-(3-(trifluoromethyl)phenyl)piperazin-1-yl)ethyl)-4-(trifluoromethyl) Benzamide], the melting point was 103.4 to 104.2 °C. Further, the responders at 100 mg/kg in series [1] (setting [4]) is 0%. Besides, the responders at 100 mg/kg in series [2] was 0%. Besides, on TRPV1 (VR1) (h), the inhibition at 100 µM worked out at 6.2%.
Regarding `O=C(NC(C(=O)N1CCN(c2cccc(C(F)(F)F)c2)CC1)c1ccccc1)c1ncccc1C(F)(F)F` (centres unmarked) [Compound 10, N-(2-Oxo-1-phenyl-2-(4-(3-(trifluoromethyl)phenyl)piperazin-1-yl)ethyl)-3-(trifluoromethyl)picolinamide], the responders at 100 mg/kg was 50% in series [1] (setting [4]) and 0% in series [2]. Moreover, at TRPV1 (VR1) (h), the inhibition at 100 µM is -3.5%.
`O=C(NC(C(=O)N1CCN(c2cccc(C(F)(F)F)c2)CC1)c1ccccc1)c1cc(C(F)(F)F)ccn1` (centres unmarked) [Compound 11, N-(2-Oxo-1-phenyl-2-(4-(3-(trifluoromethyl)phenyl)piperazin-1-yl)ethyl)-4-(trifluoromethyl)picolinamide] had a melting point of 101.2 to 102.4 °C. In series [1] (setting [4]), the responders at 100 mg/kg was 50%. For the same compound, the responders at 100 mg/kg in series [2] was 0%. Further, the inhibition at 100 µM at TRPV1 (VR1) (h) is -4.2%.
With `O=C(NC(C(=O)N1CCN(c2cccc(C(F)(F)F)c2)CC1)c1ccccc1)c1ccc(C(F)(F)F)cn1` (centres unmarked) [Compound 12, N-(2-Oxo-1-phenyl-2-(4-(3-(trifluoromethyl)phenyl)piperazin-1-yl)ethyl)-5-(trifluoromethyl)picolinamide], the melting point is 146.5 to 147.2 °C. The responders at 100 mg/kg in series [1] (setting [4]) was 50%. Further, the responders at 100 mg/kg in series [2] is 0%. For the same compound, the inhibition at 100 µM at TRPV1 (VR1) (h) is -1.2%.
`CC(=O)NC(C(=O)NC1CCN(c2ccccc2)C1)c1ccccc1` (centres unmarked) [Compound 21, 2-Acetamido-2-phenyl-N-(1-phenylpyrrolidin-3-yl)acetamide] returned a melting point of 189.7 to 190.5 °C. In addition, the responders at 100 mg/kg in series [1] (setting [4]) was 0%. The responders at 100 mg/kg in series [2] was 0%. Besides, on TRPV1 (VR1) (h), the inhibition at 100 µM is 4.2%.
In turn, `CC(=O)NC(C(=O)NC1CCN(c2cccc(C(F)(F)F)c2)C1)c1ccccc1` (centres unmarked) [Compound 22, 2-Acetamido-2-phenyl-N-(1-(3-(trifluoromethyl)phenyl)pyrrolidin-3-yl)acetamide] displayed a melting point of 203.7 to 204.4 °C. Moreover, the responders at 100 mg/kg in series [1] (setting [3]) turned out to be 50%. For the same compound, in series [1] (setting [4]), the responders at 100 mg/kg is 50%. Moreover, in series [2], the responders at 100 mg/kg was 0%. Moreover, on TRPV1 (VR1) (h), the inhibition at 100 µM is -8.4%.
Consider `CC(=O)NC(C(=O)NC1CCN(c2cccc(OC(F)(F)F)c2)C1)c1ccccc1` (centres unmarked) [Compound 23, 2-Acetamido-2-phenyl-N-(1-(3-(trifluoromethoxy)phenyl)pyrrolidin-3-yl)acetamide], for which the melting point was 173.1 to 174.2 °C. Also, the responders at 100 mg/kg in series [1] (setting [3]) was 50%. In series [1] (setting [4]), the responders at 100 mg/kg is 50%. Besides, the responders at 100 mg/kg in series [2] was 0%. The inhibition at 100 µM at TRPV1 (VR1) (h) is -2.7%.
`CC(=O)NC(C(=O)NC1CCN(c2cccc(SC(F)(F)F)c2)C1)c1ccccc1` (centres unmarked) [Compound 24, 2-Acetamido-2-phenyl-N-(1-(3-((trifluoromethyl)thio)phenyl)pyrrolidin-3-yl)acetamide] came in with a melting point of 168.8 to 169.7 °C. The responders at 100 mg/kg in series [1] (setting [3]) is 25%. Further, the responders at 100 mg/kg in series [1] (setting [4]) was 25%. In series [2], the responders at 100 mg/kg is 0%. Further, the inhibition at 100 µM on TRPV1 (VR1) (h) turned out to be 1.3%.

The values above are taken from article PMC11378297, “Discovery and Profiling of New Multimodal Phenylglycinamide Derivatives as Potent Antiseizure and Antinociceptive Drug Candidates” (ACS Chemical Neuroscience, 2024).
